Data published in ChEMBL document CHEMBL1201862, “PubChem BioAssay data set” (2004).
Each block holds one molecule with its values, some of them ahead of it. Active and inactive are the calls of the source.

Columns and labels:
[1] = biological target: Nucleotide-binding oligomerization domain-containing protein 2 (Homo sapiens, UniProt Q9HC29); assay: NOD2 signaling inhibitors, cell-based, luminescence, uHTS, HEK293 (AID 1566); assay type: functional
HEK293 [2] = assay: NOD1 signaling inhibitors, primary screen, cell-based, luminescence, uHTS (AID 1578); assay type: functional; details: Homo sapiens
HEK293 [3] = assay: cells; assay type: functional, cell-based; details: Homo sapiens
HEK293 [4] = assay: NOD2 signaling inhibitors in MDP-stimulated cells, cell-based, uHTS, luminescence (AID 2001); assay type: functional; details: Homo sapiens
HEK293 [5] = assay: cells; assay type: functional, cell-based; details: Homo sapiens; remark: listed apart in the source
[6] = inhibitors of HIV Env-driven cell fusion, dose response, cherry-pick (AID 652057); assay type: functional, cell-based
HEK293 [7] = assay: cells; assay type: functional, cell-based; details: Homo sapiens; remark: listed apart in the source
[8] = inhibitors of clade B AD8 Env fusion, dose response, cell-based, cherry-pick (AID 652062); assay type: functional;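 further: luciferase signal from cell-cell fusion driven by HIV-1 clade B AD8 Env; potency is for inhibitors of fusion seen as a drop in luminescence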
[9] = ZM109 Env clade C HIV-1 fusion inhibitors, dose response, HeLa effector, CEM target cells, luciferase, cherry-pick (AID 652058); assay type: functional, cell-based
Interleukin-8 = biological target: T1, Interleukin-8 (Homo sapiens, UniProt P10145); assay: Dose Response confirmation of uHTS small molecule hits for cystic fibrosis induced NFkb Inhibitors in a PAF-induced IL8 counterscreen.; assay type: functional; details: read-out: IC50_Mean
T1 sequence (P10145 whole entry): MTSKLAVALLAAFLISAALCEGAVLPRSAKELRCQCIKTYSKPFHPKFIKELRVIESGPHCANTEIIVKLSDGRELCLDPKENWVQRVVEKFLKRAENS

[10] = off-target signal loss in HeLa-CEM21 co-culture – HeLa F-luc CTL cells, cherry-picked, counter-screen for HIV-1 Env fusion inhibitor project, dose response (AID 652040); assay type: functional, cell-based;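 further: potency for signal decrease marking cytotoxic or nonspecific inhibition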
[11] = biological target: T2, Protein disulfide-isomerase (Homo sapiens, UniProt P07237); assay: PDI inhibitors, insulin aggregation turbidity, dose response, biochemical, absorbance, cherry-picked samples (AID 602350); assay type: functional
[12] = biological target: T2, Protein disulfide-isomerase; assay: PDI inhibitors, insulin turbidity readout, dose response, biochemical, absorbance, cherry-picked samples, set 2 (AID 624274); assay type: functional
PglD = PglD (Campylobacter jejuni, UniProt O86157); assay: PglD acetyltransferase inhibitors, dose response, biochemical, DTNB absorbance, cherry-picked samples, set 2 (AID 624257); assay type: functional
[13] = biological target: ATP-dependent translocase ABCB1 (Homo sapiens, UniProt P08183); assay: ABCB1 efflux inhibitor potency, dose response, Jurkat-DNR cells, JC-1, flow cytometry, set 2 (AID 504569); assay type: functional; details: read-out: EC50_MICROM_;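 further: potency of pump inhibitors that raise cellular JC-1 green fluorescence up to the nicardipine level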
H9c2 = assay: cells; assay type: functional, cell-based; details: Rattus norvegicus, H9c2, Myocardium;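 further: confirmatory concentration-response retest of ultra-high-throughput screening hits for modulation of myocardial damage; cell death induced by hydrogen peroxide oxidative stress; compound pretreatment for 60 min then peroxide exposure for 2 h; potency is for protecting the cells against peroxide damage rather than for killing them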
[14] = NIH-3T3 fibroblast cytotoxicity, dose response, cytotoxicity control for antifungal single agent project, cell-based, Alamar Blue, dry powder (AID 602188); assay type: functional
[15] = biological target: Ras and Rab interactor 1/Tyrosine-protein kinase ABL1 (Homo sapiens, UniProt P00519+Q13671); assay type: functional;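 further: biochemical TR-FRET dose-response test measuring inhibition of binding between Rin1 and Abl proteins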
Sequence of Ras and Rab interactor 1/Tyrosine-protein kinase ABL1 (P00519 whole entry): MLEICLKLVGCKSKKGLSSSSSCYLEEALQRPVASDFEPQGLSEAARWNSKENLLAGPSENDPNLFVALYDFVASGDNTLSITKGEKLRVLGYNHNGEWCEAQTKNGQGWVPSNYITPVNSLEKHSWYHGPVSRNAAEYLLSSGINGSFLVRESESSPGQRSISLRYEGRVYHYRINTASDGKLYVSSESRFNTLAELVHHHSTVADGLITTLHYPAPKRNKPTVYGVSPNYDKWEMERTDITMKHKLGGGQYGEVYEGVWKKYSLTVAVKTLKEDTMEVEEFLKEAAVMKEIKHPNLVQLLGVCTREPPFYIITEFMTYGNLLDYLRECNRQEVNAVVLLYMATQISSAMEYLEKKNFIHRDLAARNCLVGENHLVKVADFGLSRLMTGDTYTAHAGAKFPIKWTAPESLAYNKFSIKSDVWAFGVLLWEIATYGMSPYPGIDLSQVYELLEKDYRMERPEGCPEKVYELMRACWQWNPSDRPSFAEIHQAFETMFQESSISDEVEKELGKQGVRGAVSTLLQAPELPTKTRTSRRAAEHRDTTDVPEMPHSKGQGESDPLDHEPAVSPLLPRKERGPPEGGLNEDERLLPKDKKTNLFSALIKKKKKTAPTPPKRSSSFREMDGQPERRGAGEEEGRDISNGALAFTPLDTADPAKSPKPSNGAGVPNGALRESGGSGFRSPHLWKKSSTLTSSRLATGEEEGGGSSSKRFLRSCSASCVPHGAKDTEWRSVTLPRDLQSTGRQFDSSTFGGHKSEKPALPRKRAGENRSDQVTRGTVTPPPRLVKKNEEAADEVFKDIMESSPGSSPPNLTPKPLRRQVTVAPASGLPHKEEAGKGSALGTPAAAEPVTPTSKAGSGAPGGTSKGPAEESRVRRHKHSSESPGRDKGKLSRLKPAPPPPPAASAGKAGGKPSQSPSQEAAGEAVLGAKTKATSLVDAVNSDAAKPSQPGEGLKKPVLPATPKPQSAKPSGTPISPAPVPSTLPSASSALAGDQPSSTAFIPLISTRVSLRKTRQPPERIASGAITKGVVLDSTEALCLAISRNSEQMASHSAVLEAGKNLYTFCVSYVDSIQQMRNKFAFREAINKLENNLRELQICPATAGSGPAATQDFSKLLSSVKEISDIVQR
Sequence of Ras and Rab interactor 1/Tyrosine-protein kinase ABL1 (Q13671 whole entry): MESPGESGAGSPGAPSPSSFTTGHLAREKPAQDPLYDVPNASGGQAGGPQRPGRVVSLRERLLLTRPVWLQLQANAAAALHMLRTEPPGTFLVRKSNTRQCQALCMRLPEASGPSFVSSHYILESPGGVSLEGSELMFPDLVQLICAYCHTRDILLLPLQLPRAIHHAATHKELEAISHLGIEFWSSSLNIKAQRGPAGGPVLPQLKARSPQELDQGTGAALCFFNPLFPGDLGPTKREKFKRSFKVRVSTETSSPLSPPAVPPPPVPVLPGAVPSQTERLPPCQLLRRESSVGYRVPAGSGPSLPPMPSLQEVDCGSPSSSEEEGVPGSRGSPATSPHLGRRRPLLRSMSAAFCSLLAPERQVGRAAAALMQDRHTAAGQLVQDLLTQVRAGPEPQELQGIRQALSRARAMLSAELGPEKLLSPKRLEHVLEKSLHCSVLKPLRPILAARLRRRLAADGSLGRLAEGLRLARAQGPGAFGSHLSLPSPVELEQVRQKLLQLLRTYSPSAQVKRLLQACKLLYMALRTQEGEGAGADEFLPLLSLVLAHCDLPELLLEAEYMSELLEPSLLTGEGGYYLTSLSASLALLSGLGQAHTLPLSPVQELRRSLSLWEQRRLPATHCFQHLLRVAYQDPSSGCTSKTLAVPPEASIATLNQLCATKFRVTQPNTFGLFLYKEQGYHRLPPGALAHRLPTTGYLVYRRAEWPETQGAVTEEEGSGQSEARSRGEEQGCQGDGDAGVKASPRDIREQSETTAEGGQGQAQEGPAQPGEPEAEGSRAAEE

T2 sequence (P07237 whole entry): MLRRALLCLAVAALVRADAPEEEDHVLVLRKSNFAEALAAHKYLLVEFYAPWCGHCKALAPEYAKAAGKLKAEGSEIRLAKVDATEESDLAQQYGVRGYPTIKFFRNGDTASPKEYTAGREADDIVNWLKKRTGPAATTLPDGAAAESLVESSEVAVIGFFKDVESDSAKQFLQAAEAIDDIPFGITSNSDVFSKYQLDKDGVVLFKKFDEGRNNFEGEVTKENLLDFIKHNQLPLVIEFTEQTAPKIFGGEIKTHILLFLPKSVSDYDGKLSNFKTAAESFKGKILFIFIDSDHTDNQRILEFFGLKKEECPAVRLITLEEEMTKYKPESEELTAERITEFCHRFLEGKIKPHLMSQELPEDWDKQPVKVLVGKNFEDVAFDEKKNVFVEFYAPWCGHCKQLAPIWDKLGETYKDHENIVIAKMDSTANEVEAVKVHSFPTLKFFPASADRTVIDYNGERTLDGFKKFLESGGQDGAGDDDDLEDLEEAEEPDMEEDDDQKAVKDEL
Sequence of Nucleotide-binding oligomerization domain-containing protein 2 (Q9HC29 whole entry, the tested form may be a part): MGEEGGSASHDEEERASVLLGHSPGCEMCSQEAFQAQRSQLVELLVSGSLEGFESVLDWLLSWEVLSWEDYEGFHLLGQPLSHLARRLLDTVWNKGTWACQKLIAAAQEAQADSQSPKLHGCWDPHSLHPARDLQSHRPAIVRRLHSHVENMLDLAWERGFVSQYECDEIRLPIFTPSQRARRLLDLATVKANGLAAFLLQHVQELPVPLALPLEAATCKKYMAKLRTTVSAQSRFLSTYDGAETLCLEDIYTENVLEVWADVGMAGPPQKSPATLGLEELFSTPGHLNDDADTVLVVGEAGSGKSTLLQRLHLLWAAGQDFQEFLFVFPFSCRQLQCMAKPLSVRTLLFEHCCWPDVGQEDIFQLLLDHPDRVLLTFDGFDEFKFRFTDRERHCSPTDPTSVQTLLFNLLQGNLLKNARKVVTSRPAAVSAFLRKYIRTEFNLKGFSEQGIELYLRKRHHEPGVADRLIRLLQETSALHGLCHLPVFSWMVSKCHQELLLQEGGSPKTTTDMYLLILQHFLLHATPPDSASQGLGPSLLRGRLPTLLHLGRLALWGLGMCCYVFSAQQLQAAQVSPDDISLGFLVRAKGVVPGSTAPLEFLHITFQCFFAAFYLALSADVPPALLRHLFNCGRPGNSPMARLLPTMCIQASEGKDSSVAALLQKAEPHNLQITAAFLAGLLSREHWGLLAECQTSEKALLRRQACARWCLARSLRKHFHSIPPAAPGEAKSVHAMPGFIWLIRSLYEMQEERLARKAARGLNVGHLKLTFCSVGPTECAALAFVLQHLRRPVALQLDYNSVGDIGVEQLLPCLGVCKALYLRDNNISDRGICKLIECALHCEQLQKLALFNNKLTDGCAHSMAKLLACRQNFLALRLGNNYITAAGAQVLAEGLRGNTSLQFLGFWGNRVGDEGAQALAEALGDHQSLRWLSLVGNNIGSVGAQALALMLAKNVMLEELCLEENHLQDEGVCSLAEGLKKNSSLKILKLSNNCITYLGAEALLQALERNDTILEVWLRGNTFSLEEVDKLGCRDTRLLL
Sequence of PglD (O86157 whole entry): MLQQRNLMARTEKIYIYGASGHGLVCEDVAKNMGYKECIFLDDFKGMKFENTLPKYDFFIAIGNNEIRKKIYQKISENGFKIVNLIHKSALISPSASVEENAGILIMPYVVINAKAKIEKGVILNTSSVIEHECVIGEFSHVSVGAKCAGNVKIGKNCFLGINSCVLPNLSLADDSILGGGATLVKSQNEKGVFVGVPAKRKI
Sequence of ATP-dependent translocase ABCB1 (P08183 whole entry): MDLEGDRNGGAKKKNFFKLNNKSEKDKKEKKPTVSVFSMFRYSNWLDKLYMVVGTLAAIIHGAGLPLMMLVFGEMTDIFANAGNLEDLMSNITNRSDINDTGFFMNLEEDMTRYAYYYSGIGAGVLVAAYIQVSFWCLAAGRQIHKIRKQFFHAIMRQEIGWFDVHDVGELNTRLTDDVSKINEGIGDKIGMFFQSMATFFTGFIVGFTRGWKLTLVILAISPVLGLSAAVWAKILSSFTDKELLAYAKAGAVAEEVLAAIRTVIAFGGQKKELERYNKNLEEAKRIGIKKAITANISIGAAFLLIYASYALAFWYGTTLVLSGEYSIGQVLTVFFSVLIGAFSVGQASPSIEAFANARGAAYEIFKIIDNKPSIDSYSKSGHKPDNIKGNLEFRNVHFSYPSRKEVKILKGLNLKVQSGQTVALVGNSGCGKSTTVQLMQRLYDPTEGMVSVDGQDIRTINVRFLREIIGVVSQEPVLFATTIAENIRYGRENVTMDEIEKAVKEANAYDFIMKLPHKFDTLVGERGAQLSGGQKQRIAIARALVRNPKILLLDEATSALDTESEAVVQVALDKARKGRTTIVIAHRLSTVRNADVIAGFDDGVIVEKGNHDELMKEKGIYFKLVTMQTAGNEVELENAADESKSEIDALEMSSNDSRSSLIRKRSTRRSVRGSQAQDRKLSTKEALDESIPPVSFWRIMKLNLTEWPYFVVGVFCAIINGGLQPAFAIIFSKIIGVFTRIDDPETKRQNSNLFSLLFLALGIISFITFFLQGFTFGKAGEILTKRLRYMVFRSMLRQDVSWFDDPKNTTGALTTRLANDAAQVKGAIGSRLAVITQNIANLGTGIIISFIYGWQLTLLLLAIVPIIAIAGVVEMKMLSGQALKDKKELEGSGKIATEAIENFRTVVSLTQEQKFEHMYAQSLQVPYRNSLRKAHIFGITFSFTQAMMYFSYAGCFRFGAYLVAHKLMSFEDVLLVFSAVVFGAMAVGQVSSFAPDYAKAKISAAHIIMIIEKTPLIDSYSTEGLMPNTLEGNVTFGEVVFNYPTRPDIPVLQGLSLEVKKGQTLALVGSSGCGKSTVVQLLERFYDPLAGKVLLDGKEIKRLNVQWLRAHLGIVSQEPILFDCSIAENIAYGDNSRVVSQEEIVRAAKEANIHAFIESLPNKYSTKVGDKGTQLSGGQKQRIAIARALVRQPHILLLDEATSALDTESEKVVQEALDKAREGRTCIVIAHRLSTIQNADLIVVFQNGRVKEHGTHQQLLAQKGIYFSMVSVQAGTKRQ

SMILES: Cn1c(=O)c2c(nc(Oc3ccc4ccccc4c3)n2C)n(C)c1=O
EC50 [1]: 4.28 µM (active)
EC50 (HEK293 [2]): 6.6 µM (active)
IC50 (HEK293 [3]): > 20 µM (inactive)
IC50 (HEK293 [4]): 3.88 µM (active)
IC50 (HEK293 [5]): 3.32 µM (active)
AC50 [6]: 11.6 µM (active)
IC50 (HEK293 [7]): > 20 µM (inactive)
AC50 [8]: 2.05 µM (active)
AC50 [9]: 40.2 µM (active)
IC50 (Interleukin-8): 14 µM (inactive)
AC50 [10]: 18.4 µM (active)

SMILES: COc1ccc(-c2cc3nc(-c4ccccc4)cc(N4CCN(C(=O)c5ccoc5)CC4)n3n2)cc1
EC50 [13]: 0.94 µM (active)
IC50 (H9c2): > 79 µM (inactive)

SMILES: Oc1c(CN2CCN(c3ccccc3)CC2)cc(Cl)c2cccnc12
AC50 [14]: 0.964 µM (active)

The next lines start with the values.

AC50 [11]: < 0.009 µM (active)
AC50 [12]: 0.009 µM (active)
SMILES: CC1Cc2ccccc2N1C(=O)CSc1nnc2sc3ccccc3n12 (stereo not drawn)

AC50 (PglD): 4.58 µM (active)
SMILES: Cc1c(C(=O)O)sc2nc(/C=C/c3cccc(O)c3)nc(O)c12

IC50 [15]: 12.8 µM (inactive)
SMILES: CCOC(=O)CCCCC(=O)c1[nH]c(=O)[nH]c1Cn1ccnc1
